Measurements reported in patent US20260262643A1, “HERBICIDAL BENZOXAZINES” (FMC CORPORATION, priority 2022, published 2026).

How the values were obtained:
horseweed = test: Test C postemergence; type: in vivo, Erigeron canadensis; conditions: 10 days, 0 to 100 scale (0 no effect, 100 complete control)
Method in brief: (§1)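 Visual injury ratings on a 0–100 scale (100 = complete control) were made against untreated controls 10 days after treatment in the greenhouse. Compounds, formulated with surfactant in non-phytotoxic solvent, were sprayed on soil preemergence or onto one- to two-leaf plants 2–10 cm tall postemergence.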

oat, wild [1] = test: Test C preemergence; type: in vivo, Avena fatua
Method in brief: as §1

barnyardgrass [2] = test: Test C postemergence; type: in vivo, Echinochloa crusgalli; conditions: 10 days, 0 to 100 scale (0 no effect, 100 complete control)
Method in brief: as §1

soybean [3] = test: Test C postemergence; type: in vivo, Glycine max; conditions: 10 days, 0 to 100 scale (0 no effect, 100 complete control)
Method in brief: as §1

oat, wild [4] = test: Test C postemergence; type: in vivo, Avena fatua; conditions: 10 days, 0 to 100 scale (0 no effect, 100 complete control)
Method in brief: as §1

ryegrass, Italian [5] = test: Test C preemergence; type: in vivo, Lolium multiflorum
Method in brief: as §1

green foxtail [6] = test: Test C preemergence; type: in vivo, Setaria viridis
Method in brief: as §1

wheat [7] = test: Test C preemergence; type: in vivo, Triticum aestivum
Method in brief: as §1

soybean [8] = test: Test C preemergence; type: in vivo, Glycine max
Method in brief: as §1

corn [9] = test: Test C postemergence; type: in vivo, Zea mays; conditions: 10 days, 0 to 100 scale (0 no effect, 100 complete control)
Method in brief: as §1

ragweed [10] = test: Test C postemergence; type: in vivo, Ambrosia artemisiifolia; conditions: 10 days, 0 to 100 scale (0 no effect, 100 complete control)
Method in brief: as §1

wheat [11] = test: Test C postemergence; type: in vivo, Triticum aestivum; conditions: 10 days, 0 to 100 scale (0 no effect, 100 complete control)
Method in brief: as §1

ducksalad = test: Test D flooded paddy test; type: in vivo, Heteranthera limosa; conditions: 250 g ai/ha, applied to paddy water, visual rating after 13 to 14 days, scale 0 to 100 (0 no effect, 100 complete control)
Method in brief: (§2)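 Plants grown to the 2-leaf stage; pots flooded to 3 cm above soil at treatment and held at that depth throughout. Test compounds applied directly to the paddy water. After 13 to 14 days in a greenhouse, response was rated visually versus controls on a 0 (no effect) to 100 (complete control) scale.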

ragweed [12] = test: Test C preemergence; type: in vivo, Ambrosia artemisiifolia
Method in brief: as §1

kochia [13] = test: Test C postemergence; type: in vivo, Bassia scoparia; conditions: 10 days, 0 to 100 scale (0 no effect, 100 complete control)
Method in brief: as §1

blackgrass [14] = test: Test C preemergence; type: in vivo, Alopecurus myosuroides
Method in brief: as §1

galium = test: Test C postemergence; type: in vivo, Galium aparine; conditions: 10 days, 0 to 100 scale (0 no effect, 100 complete control)
Method in brief: as §1

blackgrass [15] = test: Test C postemergence; type: in vivo, Alopecurus myosuroides; conditions: 10 days, 0 to 100 scale (0 no effect, 100 complete control)
Method in brief: as §1

rice = test: Test D flooded paddy test; type: in vivo, Oryza sativa; conditions: 250 g ai/ha, applied to paddy water, visual rating after 13 to 14 days, scale 0 to 100 (0 no effect, 100 complete control)
Method in brief: as §2

barnyardgrass [16] = test: Test C preemergence; type: in vivo, Echinochloa crusgalli
Method in brief: as §1

pigweed, palmer [17] = test: Test C preemergence; type: in vivo, Amaranthus palmeri
Method in brief: as §1

green foxtail [18] = test: Test C postemergence; type: in vivo, Setaria viridis; conditions: 10 days, 0 to 100 scale (0 no effect, 100 complete control)
Method in brief: as §1

corn [19] = test: Test C preemergence; type: in vivo, Zea mays
Method in brief: as §1

sedge, umbrella = test: Test D flooded paddy test; type: in vivo, Cyperus difformis; conditions: 250 g ai/ha, applied to paddy water, visual rating after 13 to 14 days, scale 0 to 100 (0 no effect, 100 complete control)
Method in brief: as §2

kochia [20] = test: Test C preemergence; type: in vivo, Bassia scoparia
Method in brief: as §1

pigweed, palmer [21] = test: Test C postemergence; type: in vivo, Amaranthus palmeri; conditions: 10 days, 0 to 100 scale (0 no effect, 100 complete control)
Method in brief: as §1

ryegrass, Italian [22] = test: Test C postemergence; type: in vivo, Lolium multiflorum; conditions: 10 days, 0 to 100 scale (0 no effect, 100 complete control)
Method in brief: as §1

barnyardgrass [23] = test: Test D flooded paddy test; type: in vivo, Echinochloa crus-galli; conditions: 250 g ai/ha, applied to paddy water, visual rating after 13 to 14 days, scale 0 to 100 (0 no effect, 100 complete control)
Method in brief: as §2

[24] = 500 g ai/ha, preemergence, 0 to 100 scale (0 no effect, 100 complete control)
[25] = Preemergence, 125 g ai/ha, 0 to 100 scale, 0 no effect, 100 complete control

CC(C)c1ncn(-c2cccc(C(=O)N3CC(C(F)(F)F)Oc4c(Cl)cccc43)c2)n1 (stereo not shown) [Compound 348]
Plant response rating, Horseweed (horseweed; 500 g ai/ha, postemergence): 40
Plant response rating, Horseweed (horseweed; Postemergence, 125 g ai/ha): 0
Oat, Wild plant response rating (oat, wild [1]; [24]): 90
Plant response rating, Oat, Wild (oat, wild [1]; [25]): 60
Plant response rating, Barnyardgrass (barnyardgrass [2]; 500 g ai/ha, postemergence): 40
Plant response rating, Barnyardgrass (barnyardgrass [2]; Postemergence, 125 g ai/ha): 10
Plant response rating, Soybean (soybean [3]; 500 g ai/ha, postemergence): 100
Plant response rating, Soybean (soybean [3]; Postemergence, 125 g ai/ha): 100
Plant response rating, Oat, Wild (oat, wild [4]; 500 g ai/ha, postemergence): 60
Plant response rating, Oat, Wild (oat, wild [4]; Postemergence, 125 g ai/ha): 20
Ryegrass, Italian plant response rating (ryegrass, Italian [5]; [24]): 100
Plant response rating, Ryegrass, Italian (ryegrass, Italian [5]; [25]): 90
Foxtail, Green plant response rating (green foxtail [6]; [24]): 100
Plant response rating, Foxtail, Green (green foxtail [6]; [25]): 100
Wheat plant response rating (wheat [7]; [24]): 80
Plant response rating, Wheat (wheat [7]; [25]): 50
Soybean plant response rating (soybean [8]; [24]): 80
Plant response rating, Soybean (soybean [8]; [25]): 40
Plant response rating, Corn (corn [9]; 500 g ai/ha, postemergence): 30
Plant response rating, Corn (corn [9]; Postemergence, 125 g ai/ha): 10
Plant response rating, Ragweed (ragweed [10]; 500 g ai/ha, postemergence): 60
Plant response rating, Ragweed (ragweed [10]; Postemergence, 125 g ai/ha): 30
Plant response rating, Wheat (wheat [11]; 500 g ai/ha, postemergence): 30
Plant response rating, Wheat (wheat [11]; Postemergence, 125 g ai/ha): 10
Plant response rating, Ducksalad (Flood) (ducksalad): 75
Ragweed plant response rating (ragweed [12]; [24]): 20
Plant response rating, Ragweed (ragweed [12]; [25]): 20
Plant response rating, Kochia (kochia [13]; 500 g ai/ha, postemergence): 100
Plant response rating, Kochia (kochia [13]; Postemergence, 125 g ai/ha): 70
Blackgrass plant response rating (blackgrass [14]; [24]): 90
Plant response rating, Blackgrass (blackgrass [14]; [25]): 50
Plant response rating, Galium (galium; 500 g ai/ha, postemergence): 100
Plant response rating, Galium (galium; Postemergence, 125 g ai/ha): 100
Plant response rating, Blackgrass (blackgrass [15]; 500 g ai/ha, postemergence): 100
Plant response rating, Blackgrass (blackgrass [15]; Postemergence, 125 g ai/ha): 70
Plant response rating, Rice (Flood) (rice): 0
Barnyardgrass plant response rating (barnyardgrass [16]; [24]): 100
Plant response rating, Barnyardgrass (barnyardgrass [16]; [25]): 60
Pigweed, Palmer plant response rating (pigweed, palmer [17]; [24]): 100
Plant response rating, Pigweed, Palmer (pigweed, palmer [17]; [25]): 100
Plant response rating, Foxtail, Green (green foxtail [18]; 500 g ai/ha, postemergence): 70
Plant response rating, Foxtail, Green (green foxtail [18]; Postemergence, 125 g ai/ha): 50
Corn plant response rating (corn [19]; [24]): 0
Plant response rating, Corn (corn [19]; [25]): 0
Plant response rating, Sedge, Umbrella (Flood) (sedge, umbrella): 45
Kochia plant response rating (kochia [20]; [24]): 100
Plant response rating, Kochia (kochia [20]; [25]): 90
Plant response rating, Pigweed, Palmer (pigweed, palmer [21]; 500 g ai/ha, postemergence): 100
Plant response rating, Pigweed, Palmer (pigweed, palmer [21]; Postemergence, 125 g ai/ha): 90
Plant response rating, Ryegrass, Italian (ryegrass, Italian [22]; 500 g ai/ha, postemergence): 70
Plant response rating, Ryegrass, Italian (ryegrass, Italian [22]; Postemergence, 125 g ai/ha): 30
Plant response rating, Barnyardgrass (Flood) (barnyardgrass [23]): 30
